{"source": "the NIST ThermoML archive (doi:10.1016/j.fluid.2011.02.002)", "key": {"[1]": {"conditions": "Closed cell (Static) method"}, "[2]": {"test": "molar heat capacity at constant pressure", "conditions": "101.33 kPa, Liquid, Small sample (50 mg) DSC"}}, "note": "“And” between values parts separate entries of the source, which are not always exact repeats. Identical values can stand only once. ± gives the expanded uncertainty stated by the source."}
{"smiles": "O=S1(=O)CCCC1", "note": "[sulfolane]", "values": [{"measurement": "vapor or sublimation pressure", "setting": "[1]; 302.16 K, Liquid", "value": "0.00146 ± 0.00012", "unit": "kPa"}, {"measurement": "vapor or sublimation pressure", "setting": "[1]; 303.17 K, Liquid", "value": "0.00155 ± 0.00012 kPa and 0.00158 ± 0.00012 kPa"}, {"measurement": "vapor or sublimation pressure", "setting": "[1]; 305.17 K, Liquid", "value": "0.00188 ± 0.00013 kPa and 0.00187 ± 0.00013 kPa"}, {"measurement": "vapor or sublimation pressure", "setting": "[1]; 306.17 K, Liquid", "value": "0.00203 ± 0.00013", "unit": "kPa"}, {"measurement": "vapor or sublimation pressure", "setting": "[1]; 307.17 K, Liquid", "value": "0.00223 ± 0.00014 kPa and 0.00224 ± 0.00014 kPa and 0.0022 ± 0.00014 kPa"}, {"measurement": "vapor or sublimation pressure", "setting": "[1]; 308.17 K, Liquid", "value": "0.00241 ± 0.00014 kPa and 0.0024 ± 0.00014 kPa"}, {"measurement": "molar heat capacity at constant pressure", "setting": "[2]; 304.04 K", "value": "179.5 ± 4.4 J/K/mol and 179.9 ± 4.4 J/K/mol"}, {"measurement": "molar heat capacity at constant pressure", "setting": "[2]; 309.14 K", "value": "181.3 ± 4.4", "unit": "J/K/mol"}, {"measurement": "molar heat capacity at constant pressure", "setting": "[2]; 309.15 K", "value": "181.6 ± 4.4", "unit": "J/K/mol"}, {"measurement": "molar heat capacity at constant pressure", "setting": "[2]; 314.25 K", "value": "182.6 ± 4.5 J/K/mol and 183.8 ± 4.5 J/K/mol"}, {"measurement": "molar heat capacity at constant pressure", "setting": "[2]; 319.35 K", "value": "184.7 ± 4.5 J/K/mol and 184.5 ± 4.5 J/K/mol"}, {"measurement": "molar heat capacity at constant pressure", "setting": "[2]; 324.46 K", "value": "185.3 ± 4.5 J/K/mol and 184.4 ± 4.5 J/K/mol"}, {"measurement": "molar heat capacity at constant pressure", "setting": "[2]; 329.56 K", "value": "187.4 ± 4.6 J/K/mol and 186.6 ± 4.6 J/K/mol"}, {"measurement": "molar heat capacity at constant pressure", "setting": "[2]; 334.66 K", "value": "188.7 ± 4.6", "unit": "J/K/mol"}, {"measurement": "molar heat capacity at constant pressure", "setting": "[2]; 334.67 K", "value": "187.9 ± 4.6", "unit": "J/K/mol"}, {"measurement": "molar heat capacity at constant pressure", "setting": "[2]; 339.77 K", "value": "189.7 ± 4.6 J/K/mol and 188.5 ± 4.6 J/K/mol"}, {"measurement": "molar heat capacity at constant pressure", "setting": "[2]; 344.88 K", "value": "190.2 ± 4.7", "unit": "J/K/mol"}, {"measurement": "molar heat capacity at constant pressure", "setting": "[2]; 349.98 K", "value": "192.5 ± 4.7 J/K/mol and 192 ± 4.7 J/K/mol"}, {"measurement": "molar heat capacity at constant pressure", "setting": "[2]; 355.09 K", "value": "193.4 ± 4.7 J/K/mol and 192.3 ± 4.7 J/K/mol"}]}
{"smiles": "C[S+](C)[O-]", "note": "[dimethyl sulfoxide]", "values": [{"measurement": "vapor or sublimation pressure", "setting": "[1]; 273.65 K, Crystal", "value": "0.00789 ± 0.00032", "unit": "kPa"}, {"measurement": "vapor or sublimation pressure", "setting": "[1]; 275.65 K, Crystal", "value": "0.00979 ± 0.0004", "unit": "kPa"}, {"measurement": "vapor or sublimation pressure", "setting": "[1]; 278.15 K, Crystal", "value": "0.01278 ± 0.00051 kPa and 0.01277 ± 0.00051 kPa and 0.01275 ± 0.00051 kPa"}, {"measurement": "vapor or sublimation pressure", "setting": "[1]; 280.64 K, Crystal", "value": "0.01655 ± 0.00057", "unit": "kPa"}, {"measurement": "vapor or sublimation pressure", "setting": "[1]; 280.65 K, Crystal", "value": "0.01656 ± 0.00057", "unit": "kPa"}, {"measurement": "vapor or sublimation pressure", "setting": "[1]; 283.15 K, Crystal", "value": "0.02138 ± 0.00065 kPa and 0.02137 ± 0.00065 kPa"}, {"measurement": "vapor or sublimation pressure", "setting": "[1]; 285.65 K, Crystal", "value": "0.02752 ± 0.00074 kPa and 0.02751 ± 0.00074 kPa"}, {"measurement": "vapor or sublimation pressure", "setting": "[1]; 288.15 K, Crystal", "value": "0.03531 ± 0.00087 kPa and 0.03525 ± 0.00086 kPa"}, {"measurement": "vapor or sublimation pressure", "setting": "[1]; 290.65 K, Crystal", "value": "0.04487 ± 0.001 kPa and 0.04486 ± 0.001 kPa"}, {"measurement": "vapor or sublimation pressure", "setting": "[1]; 293.15 K, Liquid", "value": "0.05512 ± 0.0012 kPa and 0.05509 ± 0.0012 kPa and 0.0551 ± 0.0012 kPa"}, {"measurement": "vapor or sublimation pressure", "setting": "[1]; 295.65 K, Liquid", "value": "0.06631 ± 0.0014 kPa and 0.06632 ± 0.0014 kPa and 0.06633 ± 0.0014 kPa"}, {"measurement": "vapor or sublimation pressure", "setting": "[1]; 298.15 K, Liquid", "value": "0.07965 ± 0.0016 kPa and 0.07966 ± 0.0016 kPa and 0.07964 ± 0.0016 kPa"}, {"measurement": "vapor or sublimation pressure", "setting": "[1]; 300.65 K, Liquid", "value": "0.09517 ± 0.0018 kPa and 0.09518 ± 0.0018 kPa"}, {"measurement": "vapor or sublimation pressure", "setting": "[1]; 303.16 K, Liquid", "value": "0.1134 ± 0.0021", "unit": "kPa"}, {"measurement": "vapor or sublimation pressure", "setting": "[1]; 305.66 K, Liquid", "value": "0.1346 ± 0.0021", "unit": "kPa"}, {"measurement": "vapor or sublimation pressure", "setting": "[1]; 308.16 K, Liquid", "value": "0.1592 ± 0.0023", "unit": "kPa"}]}
